Measurements published in patent US20220098197A1, “SALTS OF HETEROCYCLIC COMPOUND AND USE THEREOF” (priority 2019, published 2022).
In brackets after ≈: the same amount, converted by molar mass. Several values for one entry are separate records, joined by “and”; a condition that tells them apart may be missing. Identical values can stand only once. Like-named read-outs stand apart in the source and are kept apart here.

Experiments:
Type in all cases: physicochemical
[1] = Dissolution test of capsules (Chinese Pharmacopoeia 2015, General Method 0931, 2nd Method); settings: for Dissolution rate, Mean (%), 5 min / Dissolution rate, Mean (%), 10 min / Dissolution rate, Mean (%), 15 min / Dissolution rate, Mean (%), 20 min / Dissolution rate, Mean (%), 30 min / Dissolution rate, Mean (%), 45 min: mean of 6 capsules; for Dissolution rate, Mean (%), 5 min / Dissolution rate, Mean (%), 10 min / Dissolution rate, Mean (%), 15 min / Dissolution rate, Mean (%), 20 min / Dissolution rate, Mean (%), 30 min / Dissolution rate, Mean (%), 45 min / Dissolution rate, 5 min / Dissolution rate, 10 min / Dissolution rate, 15 min / Dissolution rate, 20 min / Dissolution rate, 30 min / Dissolution rate, 45 min: purified water, 50 rpm; for Dissolution rate, 5 min / Dissolution rate, 10 min / Dissolution rate, 15 min / Dissolution rate, 20 min / Dissolution rate, 30 min / Dissolution rate, 45 min: single capsules 1-6, hydrate
Experimental: The hydrates obtained hereinabove and the compound of formula A were tested for dissolution rate. The test method was as follows.
Step 1: Pretreating Raw Materials
The samples were passed through a 100 mesh sieve.
Step 2: Blending Raw Materials with Auxiliary Materials
The raw materials and lactose were weighed according to the prescription, mixed in equal increment, sieved and mixed.
The capsules were filled via a capsule filling plate and sealed. The difference of the filling amount was controlled to ±5%. The appearance was inspected to ensure that the sealing was correct and there was no split or deformation.
Test method: dissolution test method (Chinese Pharmacopoeia, edited in 2015, Chapter 4, General Method 0931, the 2nd Method)
Dissolution medium: aqueous solution
Specific test method: The sample was tested following the dissolution test method (Chinese Pharmacopoeia, edited in 2015, Chapter 4, General Method 0931, the 2nd Method). 900 ml aqueous solution was used as the dissolution medium. The speed was 50 rpm. The test was performed in accordance with the method. […] After filtration, the filtrate was precisely measured and quantitatively diluted with the dissolution medium to prepare a solution containing about 10 μg of sample per 1 ml. The absorbance was measured by at 231 nm by UV-Vis spectrophotometry (Chinese Pharmacopoeia, edited in 2015, Chapter 4, General Method 0931, the 2nd Method). An appropriate amount of the control sample was taken, weighed accurately, dissolved in dissolution medium and diluted quantitatively to prepare a solution containing about 10 μg of the sample per 1 ml, and then measured in the same way. The amount of dissolution per capsule was calculated.

[2] = Stability test (influencing factors: light, high temperature, high humidity); settings: for stability under high temperature and high humidity conditions (in words): 60° C., 92.5% RH
Experimental: Test process: An appropriate amount of each test sample was placed on a clean watch glass without a lid and then placed under the conditions of light 4500 lx±500 lx, high temperature of 60° C., high humidity of 92.5% RH for 5 days and 10 days, respectively. The properties and related substances were determined and the results were compared with the results at day 0 to observe the stability.
The test method for related substances was as follows.
Preparation of test sample solution: About 10 mg of each test sample was placed in a 10 ml volumetric flask, and 50% acetonitrile aqueous solution was added to dissolve sample, and diluted to the mark, shaken well, and filtered to obtain the test sample solution. A precise amount of 10 μl of the test sample solution was taken and injected according to the above chromatographic method, and the maximum single impurity and total impurity were calculated according to the area normalization method.

[3] = Solubility test in media with different pH; settings: for solubility: thermodynamic from solid, room temperature of 25° C.
Experimental: The hydrates obtained as above and the compound of formula A were tested for solubility in solutions with different pH. The test method was as follows.
1.1. Preparation of the Media with Different pH
pH1.0 medium: 9.0 mL of hydrochloric acid was diluted to 1000 mL with water and shaken well to obtain the medium.
pH4.5 medium: 6.80 g of potassium dihydrogen phosphate (KH2PO4) was dissolved in water and diluted to 1000 mL, adjusted to pH4.5 with phosphoric acid or sodium hydroxide, and shaken well to obtain the medium.
pH6.8 medium: 55.38 g of disodium hydrogen phosphate (Na2HPO4.12H2O) and 4.77 g of citric acid (C6H8O7.H2O) were dissolved in water and diluted to 1000 mL, adjusted to pH6.8 with phosphoric acid or sodium hydroxide, and shaken well to obtain the medium.
Pure water medium: purified water.
Test method: To a certain amount of test samples, the media with different pH were added gradually, respectively. The mixture was shaken continuously until it reached saturation. The weighing amount of the test sample and the amount of solvent were recorded and the concentration when the sample was dissolved was calculated.

[4] = high temperature 60° C., Day 10
[5] = light condition 4500 lx±500 lx, Day 5
[6] = light condition 4500 lx±500 lx, Day 10

Structure (SMILES)	stability under high temperature and high humidity conditions (in words) ([2]; 5 and 10 days)	maximum single impurity % ([2]; Day 0) [%]	property ([2]; Day 0)	total impurity % ([2]; Day 0) [%]	maximum single impurity % ([2]; high humidity 92.5% RH, Day 5) [%]	property ([2]; high humidity 92.5% RH, Day 5)	total impurity % ([2]; high humidity 92.5% RH, Day 5) [%]	maximum single impurity % ([2]; high humidity 92.5% RH, Day 10) [%]	property ([2]; high humidity 92.5% RH, Day 10)	total impurity % ([2]; high humidity 92.5% RH, Day 10) [%]	maximum single impurity % ([2]; high temperature 60° C., Day 5) [%]	property ([2]; high temperature 60° C., Day 5)	total impurity % ([2]; high temperature 60° C., Day 5) [%]	maximum single impurity % [2, 4] [%]	property [2, 4]	total impurity % [2, 4] [%]	maximum single impurity % [2, 5] [%]	property [2, 5]	total impurity % [2, 5] [%]	maximum single impurity % [2, 6] [%]	other results
CN([C@@H]1CCc2c(CC(=O)[O-])c3cccnc3n2C1)S(=O)(=O)c1ccc(F)cc1.[Li+] [Lithium salt hydrate]	relatively stable	0.59	white powder	0.87	0.55	white powder	0.72	0.56	white powder	0.76	0.56	white powder	0.79	0.56	white powder	0.78	0.61	light yellow powder	0.93	0.78	Dissolution rate, Mean (%), 5 min [1]: 34.6%; Dissolution rate, Mean (%), 10 min [1]: 67.4%; Dissolution rate, Mean (%), 15 min [1]: 79.8%; Dissolution rate, Mean (%), 20 min [1]: 85.3%; Dissolution rate, Mean (%), 30 min [1]: 85.2%; Dissolution rate, Mean (%), 45 min [1]: 85.7%; Dissolution rate, 5 min [1]: 36.5% and 42.6% and 34.7% and 34.4% and 35.6% and 23.9%; Dissolution rate, 10 min [1]: 78.7% and 75.4% and 74.4% and 60.4% and 74.8% and 40.4%; Dissolution rate, 15 min [1]: 83.6% and 82.7% and 83.4% and 81.4% and 81.3% and 66.1%; Dissolution rate, 20 min [1]: 84.3% and 87% and 85.9% and 84.9% and 85.5% and 84.4%; Dissolution rate, 30 min [1]: 85.9% and 85.2% and 85.8% and 84.6% and 84.4% and 85.3%; Dissolution rate, 45 min [1]: 85.5% and 85.6% and 88.3% and 84.2% and 85.3%; property [2, 6]: light yellow powder; total impurity % [2, 6]: 1.21%
CN([C@@H]1CCc2c(CC(=O)O)c3cccnc3n2C1)S(=O)(=O)c1ccc(F)cc1 (racemic) [Compound A]	relatively stable	0.08	white powder	0.32	0.08	white powder	0.31	0.07	white powder	0.26	0.07	white powder	0.24	0.08	white powder	0.25	4.66	light yellow powder	5.28	15.02	water solubility at different pH (comparison in words) ([3]; pH 1.0, 4.5, 6.8 and purified water): poor water solubility; solubility ([3]; pH 1.0 medium (dilute hydrochloric acid), pH 1, simulated gastric fluid, pH1.0 medium, read-out: Solubility, pH = 1.0): 1.25 µg/mL (≈ 2.99 µM); solubility ([3]; pH 4.5 medium (potassium dihydrogen phosphate solution), pH 4.5, aqueous buffer, pH4.5 medium, read-out: Solubility, pH = 4.5): 1.67 µg/mL (≈ 4 µM); solubility ([3]; pH 6.8, aqueous buffer, pH6.8 medium, read-out: Solubility, pH = 6.8): 2 µg/mL (≈ 4.79 µM); solubility ([3]; purified water, read-out: Solubility, purified water): 2 µg/mL (≈ 4.79 µM); solubility in water (in words) ([3]; water): insoluble in water; dissolution rate (in words) ([1]; same method, aqueous dissolution medium): basically zero; stability under light condition (in words) ([2]; light 4500 lx±500 lx, 5 and 10 days): degrades significantly; property [2, 6]: light yellow powder; total impurity % [2, 6]: 15.25%
CN([C@@H]1CCc2c(CC(=O)[O-])c3cccnc3n2C1)S(=O)(=O)c1ccc(F)cc1.[K+] [Potassium salt hydrate]	relatively stable	0.34	white powder	0.49	0.34	Molten solid	0.45	0.31	colorless liquid	0.48	0.34	white powder	0.45	0.33	white powder	0.45	0.33	light yellow powder	0.72	0.33	Dissolution rate, Mean (%), 5 min [1]: 31.6%; Dissolution rate, Mean (%), 10 min [1]: 74.1%; Dissolution rate, Mean (%), 15 min [1]: 83.0%; Dissolution rate, Mean (%), 20 min [1]: 85.6%; Dissolution rate, Mean (%), 30 min [1]: 87.0%; Dissolution rate, Mean (%), 45 min [1]: 86.9%; Dissolution rate, 5 min [1]: 30.7% and 28.9% and 24.1% and 34.9% and 41.7% and 29.6%; Dissolution rate, 10 min [1]: 80.4% and 53.3% and 81.5% and 72.3% and 77.6% and 79.2%; Dissolution rate, 15 min [1]: 83.7% and 80.8% and 87.4% and 84.4% and 79.5% and 82.1%; Dissolution rate, 20 min [1]: 86.4% and 83.1% and 89.2% and 87.8% and 83.0% and 84.1%; Dissolution rate, 30 min [1]: 86.9% and 86.7% and 90.2% and 87.4% and 85.0% and 85.6%; Dissolution rate, 45 min [1]: 85.6% and 86.7% and 91.3% and 87.0% and 85.8% and 84.9%; property [2, 6]: light yellow powder; total impurity % [2, 6]: 0.88%
